Columns and labels:
[1] = system: rtTA2s-M2; assay: Activation of rtTA2s-M2 in vitro; assay type: cell-based; conditions: relative to doxycycline
[2] = system: rtTA2-34R; assay: rtTA-mediated gene activation, luciferase positive cell line 34R; assay type: cell-based; conditions: FIGS. 2A and 2C
Description: (§1) FIGS. 2A-2D show a comparison of doxycycline and 9-t-butyl doxcycline in 34R and MT2 rtTA mutants. FIGS. 2A and 2B show the effect of doxycyline on 34R and MT2 mutants, respectively. FIGS. 2C and 2D show the effect of 9-t-butyl doxycycline on 34R and MT2 mutants, respectively.

[3] = system: rtTA; conditions: in vitro; relative to doxycycline
[4] = system: rtTA2-MT2; assay: rtTA-mediated gene activation, luciferase positive cell line MT2; assay type: cell-based
Description: as §1

[5] = system: rtTA2s-M2; assay: Activation of rtTA2s-M2 gene in vivo, bioluminescence of bitransgenic mice rTA M2CaMK-1/LC1; conditions: 0.2 mg/mL in drinking water with 5% sucrose, seven days, compared with doxycycline at 2 mg/mL
Experimental: 9-t-butyl doxycycline was tested in bitransgenic mice with rTA M2CaMK-1/LC1. The mice expressed the rtTA2s-M2 gene under control of the forebrain specific α-CamKII promoter. In addition, the LC1 mouse had luciferase and cre genes under the control of the bi-directional promoter. The mice were adminstered doxycycline (2 mg/mL) for seven days in the drinking water with 5% sucrose or with 9-t-butyl doxycycline at (0.2 and 2 mg/mL). The mice were anaesthetized with avertin and injected with […] (IP) and placed in the bioluminescence chamber and measured 5 minutes later.

[6] = system: tet operator-linked nucleotide sequence; conditions: as demonstrated in U.S. Pat. No. 5,789,156; cited from earlier work
[7] = described in Mansuy and Bujard Curr. Op. Neurobiol. 10:593-96; cited from earlier work

## 5-phenylcarbamate doxcycline
[1]
  activation of rtTA2s-M2 compared with doxycycline: two fold better activiator

## 9-t-butyl doxycycline
[2]
  activity compared with doxycycline, 34R rtTA mutant: ten times more active
[3]
  concentration inducing all rtTA's, lower than doxycycline: 10 fold
[4]; FIGS. 2B and 2D
  activity compared with doxycycline, MT2 rtTA mutant: ten times more active
[4]; rtTA2-MT2 system
  concentration at which full induction of the system occurred: 10 ng/mL
[5]
  activation response (luciferase bioluminescence): better activation response

## Cc1c2c(c(O)c3c(O)cccc13)C(=O)[C@]1(O)C(=O)C(C(N)=O)=C(O)[C@@H](N(C)C)[C@@H]1C2 [anhydrotetracycline]
[6]
  strength as inducing agent: strong inducing agents

## C[C@H]1c2cccc(O)c2C(=O)C2=C(O)[C@]3(O)C(=O)C(C(N)=O)=C(O)[C@@H](N(C)C)[C@@H]3[C@@H](O)[C@@H]21 [doxycycline]
[7]
  penetration of the blood-brain barrier: limited penetration of the blood-brain barrier

Reference: patent US20090257985A1, “METHODS OF REGULATING EXPRESSION OF GENES OR OF GENE PRODUCTS USING SUBSTITUTED TETRACYCLINE COMPOUNDS” (priority 2006, published 2009)
